Laboratory results taken from patent US11161844B2, “Cyclic substituted imidazo[4,5-c]quinoline derivatives” (Pfizer Inc., priority 2017, dated 2021).

How the values were obtained:
[1] = target: LRRK2, WT (GST-tagged truncated LRRK2) (Homo sapiens (Human), UniProt Q5S007); experiment: LRRK2 kinase assay (Lantha Screen), wild type; assay type: biochemical; conditions: 100 nM LRRKtide, 1 mM ATP, 2 μg/mL enzyme; geometric mean of 2-4 determinations unless otherwise indicated
Experimental: (§1) LRRK2 kinase activity was measured using Lantha Screen technology from Invitrogen. GST-tagged truncated LRRK2 from Invitrogen (Cat #PV4874) was incubated with a fluorescein-labeled peptide substrate based upon ezrin/radixin/moesin (ERM), also known as LRRKtide (Invitrogen cat #PR8976A), in the presence of a dose response of compound. Upon completion, the assay was stopped and detected with a terbium labeled anti-phospho-ERM antibody (Invitrogen, cat #PR8975A). The assay was carried out under the following protocol: The compound dose response was prepared by diluting compound to a top concentration of 0.3 mM in 100% DMSO and serial diluted by half-log in DMSO to give an 11 point curve, 100× final assay concentration. Using Echo acoustic dispensing, 60 nL of compound was transferred to a low volume Corning 384-well assay plate. 3 μL of a working solution of substrate (200 nM LRRKtide, 2 mM ATP) prepared in assay buffer (50 mM HEPES, pH 7.5, 3 mM MgCl2, with 2 mM DTT and 0.01% Brij35 added fresh) was added to the 60 nL compound assay plate. The kinase reaction was started with 3 μL of a working solution of LRRK2 enzyme at a concentration of 4 μg/mL. The final reaction concentrations were 100 nM LRRKtide, 1 mM ATP, 2 μg/mL LRRK2 enzyme and a compound dose response with a top dose of 3 μM. The reaction was allowed to progress at room temperature for 30 minutes and then stopped with the addition of 6 μL of detection buffer (20 mM Tris pH 7.6, 0.01% NP-40, 6 mM EDTA with 2 nM terbium labeled anti-phospho-ERM). After an incubation of 1 hour at room temperature, the plate was read on an Envision with an excitation wavelength of 340 nm and a reading emission at both 520 nm and 495 nm. The ratio of the 520 nm and 495 nm emission was used to analyze the data. Inhibition of mutant G2019S LRRK2 (Invitrogen cat #PV4881) was measured in the exact same method. All final concentrations of substrate ATP and enzyme were the same.

mutant G2019S LRRK2 = mutant G2019S LRRK2 (Homo sapiens (Human), UniProt Q5S007, G2019S); experiment: LRRK2 kinase assay (Lantha Screen), mutant G2019S; assay type: biochemical; conditions: 100 nM LRRKtide, 1 mM ATP, 2 μg/mL enzyme; single determination unless otherwise indicated
Experimental: as §1

Sequence of LRRK2, WT (GST-tagged truncated LRRK2) (Q5S007 970-2527): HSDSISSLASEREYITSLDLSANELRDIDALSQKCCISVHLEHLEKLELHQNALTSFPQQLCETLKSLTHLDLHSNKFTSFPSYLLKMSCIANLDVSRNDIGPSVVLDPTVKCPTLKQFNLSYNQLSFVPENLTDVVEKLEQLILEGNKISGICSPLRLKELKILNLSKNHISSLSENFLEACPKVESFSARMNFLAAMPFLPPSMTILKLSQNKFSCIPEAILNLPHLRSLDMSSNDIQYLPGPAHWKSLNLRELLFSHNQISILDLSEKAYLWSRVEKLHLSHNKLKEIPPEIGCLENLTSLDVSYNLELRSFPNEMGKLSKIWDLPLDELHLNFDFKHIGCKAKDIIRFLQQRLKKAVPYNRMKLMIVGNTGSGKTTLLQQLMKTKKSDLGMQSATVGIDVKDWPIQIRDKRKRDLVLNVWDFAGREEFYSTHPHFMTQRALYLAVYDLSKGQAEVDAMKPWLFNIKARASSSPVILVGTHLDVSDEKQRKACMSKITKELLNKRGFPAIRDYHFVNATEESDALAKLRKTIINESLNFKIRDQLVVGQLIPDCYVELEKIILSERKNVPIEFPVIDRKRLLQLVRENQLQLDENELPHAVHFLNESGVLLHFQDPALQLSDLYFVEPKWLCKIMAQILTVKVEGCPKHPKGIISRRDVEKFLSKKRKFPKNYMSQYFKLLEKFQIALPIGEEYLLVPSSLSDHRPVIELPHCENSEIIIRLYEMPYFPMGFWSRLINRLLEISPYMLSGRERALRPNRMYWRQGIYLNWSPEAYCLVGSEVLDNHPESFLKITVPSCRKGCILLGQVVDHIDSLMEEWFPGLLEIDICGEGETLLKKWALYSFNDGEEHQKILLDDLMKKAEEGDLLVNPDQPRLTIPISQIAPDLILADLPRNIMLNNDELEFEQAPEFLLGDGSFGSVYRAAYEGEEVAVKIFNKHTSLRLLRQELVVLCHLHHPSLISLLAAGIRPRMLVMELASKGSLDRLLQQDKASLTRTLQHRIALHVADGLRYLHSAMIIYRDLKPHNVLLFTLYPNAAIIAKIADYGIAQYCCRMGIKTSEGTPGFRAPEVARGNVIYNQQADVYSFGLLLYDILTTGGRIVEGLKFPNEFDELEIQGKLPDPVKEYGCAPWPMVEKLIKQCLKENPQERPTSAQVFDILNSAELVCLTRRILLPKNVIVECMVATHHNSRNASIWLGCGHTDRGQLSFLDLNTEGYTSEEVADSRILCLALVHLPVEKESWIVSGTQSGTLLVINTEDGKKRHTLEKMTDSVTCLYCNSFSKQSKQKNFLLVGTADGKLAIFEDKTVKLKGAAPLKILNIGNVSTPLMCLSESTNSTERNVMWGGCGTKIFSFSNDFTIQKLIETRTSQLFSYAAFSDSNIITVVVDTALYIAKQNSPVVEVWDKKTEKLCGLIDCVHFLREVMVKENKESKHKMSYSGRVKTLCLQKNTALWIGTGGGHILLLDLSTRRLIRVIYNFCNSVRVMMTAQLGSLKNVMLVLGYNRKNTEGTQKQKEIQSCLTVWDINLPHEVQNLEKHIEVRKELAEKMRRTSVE
Sequence of mutant G2019S LRRK2 (Q5S007 970-2527 G2019S): as the sequence (Q5S007 970-2527) above, with G1050S counted along it

| SMILES | IC50 [1] [nM] | IC50 (mutant G2019S LRRK2) [nM] |
| --- | --- | --- |
| CN1CC(n2c(C3CCC(F)C3)nc3cnc4ccc(C#N)cc4c32)C(F)(F)C1 (stereo not shown) [Example 62, 1-(4,4-difluoro-1-methylpyrrolidin-3-yl)-2-(3-fluorocyclopentyl)-1H-imidazo[4,5-c]quinoline-8-carbonitrile] | > 3000 |  |
| C[C@@H]1C[C@H](n2c(C3CCC(F)C3)nc3cnc4ccc(C#N)cc4c32)CCO1 (stereo partly drawn) [Example 14, 2-[(cis)-3-fluorocyclopentyl]-1-[(2R,4R)-2-methyltetrahydro-2H-pyran-4-yl]-1H-imidazo[4,5-c]quinoline-8-carbonitrile] | 15.2 | 10.8 |
| C[C@@H]1C[C@H](n2c([C@H]3CCOC3)nc3cnc4ccc(Cl)cc4c32)CCO1 [Example 4, 8-chloro-1-[(2R,4R)-2-methyltetrahydro-2H-pyran-4-yl]-2-[(3R)-tetrahydrofuran-3-yl]-1H-imidazo[4,5-c]quinoline] | 12.3 | 7.4 |
| C[C@@H]1C[C@H](n2c([C@H]3CCOC3)nc3cnc4ccc(C(F)F)cc4c32)CCO1 [Example 21, 8-(difluoromethyl)-1-((2R,4R)-2-methyltetrahydro-2H-pyran-4-yl)-2-((R)-tetrahydrofuran-3-yl)-1H-imidazo[4,5-c]quinoline] | 16.6 |  |
| C[C@@H]1C[C@H](n2c(C3CCCCC3(F)F)nc3cnc4ccc(C#N)cc4c32)CCO1 (stereo partly drawn) [Example 20, 2-(2,2-difluorocyclohexyl)-1-[(2R,4R)-2-methyltetrahydro-2H-pyran-4-yl]-1H-imidazo[4,5-c]quinoline-8-carbonitrile] | 17.7 | 10.4 |
| C[C@@H]1C[C@H](n2c(C3COC3)nc3cnc4ccc(Cl)cc4c32)CCO1 [Example 12, 8-chloro-1-[(2R,4R)-2-methyltetrahydro-2H-pyran-4-yl]-2-(oxetan-3-yl)-1H-imidazo[4,5-c]quinoline] | 23 | 21.2 |
| CN1CC(n2c(C3CCC(F)C3)nc3cnc4ccc(C#N)cc4c32)C(F)(F)C1 (stereo not shown) [Example 61, 1-(4,4-difluoro-1-methylpyrrolidin-3-yl)-2-(3-fluorocyclopentyl)-1H-imidazo[4,5-c]quinoline-8-carbonitrile] | 464 |  |
| C[C@@H]1C[C@H](n2c(C3CCC(F)C3)nc3cnc4ccc(F)cc4c32)CCO1 (stereo partly drawn) [Example 37, 8-fluoro-2-[trans-3-fluorocyclopentyl]-1-[(2R,4R)-2-methyltetrahydro-2H-pyran-4-yl]-1H-imidazo[4,5-c]quinoline] | 200 |  |
| CN1CC[C@@H](n2c3c(cnc4ccc(C#N)cc43)nc2[C@H]2C[C@@](C)(F)C2)C1 [Example 22, 2-(cis-3-fluoro-3-methylcyclobutyl)-1-[(3R)-1-methylpyrrolidin-3-yl]-1H-imidazo[4,5-c]quinoline-8-carbonitrile] | 14.2 | 36.5 |
| C[C@@H]1C[C@H](n2c(C3CCC(F)(F)CC3)nc3cnc4ccc(C#N)cc4c32)CCO1 [Example 17, 2-(4,4-difluorocyclohexyl)-1-[(2R,4R)-2-methyltetrahydro-2H-pyran-4-yl]-1H-imidazo[4,5-c]quinoline-8-carbonitrile] | 15.6 | 11.2 |
| CC1(C)CC(n2c(C3CCC(F)C3)nc3cnc4ccc(C#N)cc4c32)CCO1 (stereo not shown) [Example 40, 1-(2,2-dimethyltetrahydro-2H-pyran-4-yl)-2-(3-fluorocyclopentyl)-1H-imidazo[4,5-c]quinoline-8-carbonitrile] | 7.14 | 4.33 |
| N#CC[C@@H]1C[C@H](n2c3c(cnc4ccc(F)cc43)nc2[C@H]2CC[C@@H](F)CC2)CCO1 [Example 29, {(2S,4R)-4-[8-fluoro-2-(cis-4-fluorocyclohexyl)-1H-imidazo[4,5-c]quinolin-1-yl]tetrahydro-2H-pyran-2-yl}acetonitrile] | 6.53 | 4.63 |
| C[C@@H]1C[C@H](n2c(C3CCCO3)nc3cnc4ccc(Cl)cc4c32)CCO1 (stereo partly drawn) [Example 9, 8-chloro-1-[(2R,4R)-2-methyltetrahydro-2H-pyran-4-yl]-2-(tetrahydrofuran-2-yl)-1H-imidazo[4,5-c]quinoline] | 18.5 | 11.3 |
| C[C@@H]1C[C@H](n2c(C3CC(C)(F)C3)nc3cnc4ccc(Cl)cc4c32)CCO1 (stereo partly drawn) [Example 5, 8-chloro-2-(3-fluoro-3-methylcyclobutyl)-1-[(2R,4R)-2-methyltetrahydro-2H-pyran-4-yl]-1H-imidazo[4,5-c]quinoline] | 16.4 | 17.2 |
| CC1(C)CC(n2c(C3CCC(F)C3)nc3cnc4ccc(C#N)cc4c32)CCO1 (stereo not shown) [Example 41, 1-(2,2-dimethyltetrahydro-2H-pyran-4-yl)-2-(3-fluorocyclopentyl)-1H-imidazo[4,5-c]quinoline-8-carbonitrile] | 64.1 | 49.6 |
| C[C@@H]1C[C@H](n2c3c(cnc4ccc(C#N)cc43)nc2[C@H]2C[C@@H](F)C2)CCO1 [Example 19, 2-(cis-3-fluorocyclobutyl)-1-[(2R,4R)-2-methyltetrahydro-2H-pyran-4-yl]-1H-imidazo[4,5-c]quinoline-8-carbonitrile] | 16.1 | 12.4 |
| CN1CC(n2c(C3CCC(F)C3)nc3cnc4ccc(C#N)cc4c32)C(F)(F)C1 (stereo not shown) [Example 60, 1-(4,4-difluoro-1-methylpyrrolidin-3-yl)-2-(3-fluorocyclopentyl)-1H-imidazo[4,5-c]quinoline-8-carbonitrile] | 57.1 | 97.4 |
| CN1CC(n2c(C3CCC(F)C3)nc3cnc4ccc(C#N)cc4c32)C(F)(F)C1 (stereo not shown) [Example 63, 1-(4,4-difluoro-1-methylpyrrolidin-3-yl)-2-(3-fluorocyclopentyl)-1H-imidazo[4,5-c]quinoline-8-carbonitrile] | > 1840 |  |
| CO[C@H]1C[C@H](c2nc3cnc4ccc(C#N)cc4c3n2C2CCOCC2(F)F)C1 (stereo partly drawn) [Example 50, 1-(3,3-difluorotetrahydro-2H-pyran-4-yl)-2-(trans-3-methoxycyclobutyl)-1H-imidazo[4,5-c]quinoline-8-carbonitrile] | > 3000 |  |
| C[C@@H]1C[C@H](n2c(C3CCC(F)C3)nc3cnc4ccc(F)cc4c32)CCO1 (stereo partly drawn) [Example 38, 8-fluoro-2-[trans-3-fluorocyclopentyl]-1-[(2R,4R)-2-methyltetrahydro-2H-pyran-4-yl]-1H-imidazo[4,5-c]quinoline] | 202 |  |
| CC1(C)C[C@H](n2c([C@H]3CC[C@@H](F)C3)nc3cnc4ccc(C#N)cc4c32)CCO1 [Example 56, 1-[(4R)-2,2-dimethyltetrahydro-2H-pyran-4-yl]-2-[(1S,3R)-3-fluorocyclopentyl]-1H-imidazo[4,5-c]quinoline-8-carbonitrile] | > 3000 |  |
| CC1(C)C[C@H](n2c([C@@H]3CC[C@@H](F)C3)nc3cnc4ccc(C#N)cc4c32)CCO1 [Example 55, 1-[(4R)-2,2-dimethyltetrahydro-2H-pyran-4-yl]-2-[(1R,3R)-3-fluorocyclopentyl]-1H-imidazo[4,5-c]quinoline-8-carbonitrile] | 2520 |  |
| N#Cc1ccc2ncc3nc([C@H]4C[C@H](F)C4)n(C4CCOCC4(F)F)c3c2c1 (stereo partly drawn) [Example 45, 1-(3,3-difluorotetrahydro-2H-pyran-4-yl)-2-(trans-3-fluorocyclobutyl)-1H-imidazo[4,5-c]quinoline-8-carbonitrile] | 2140 |  |
| CC1(C)C[C@H](n2c([C@H]3CC[C@H](F)C3)nc3cnc4ccc(C#N)cc4c32)CCO1 [Example 53, 1-[(4R)-2,2-dimethyltetrahydro-2H-pyran-4-yl]-2-[(1S,3S)-3-fluorocyclopentyl]-1H-imidazo[4,5-c]quinoline-8-carbonitrile] | 413 |  |
| CN1CC(n2c(C3CCC(F)C3)nc3cnc4ccc(C#N)cc4c32)C(F)(F)C1 (stereo not shown) [Example 64, 1-(4,4-difluoro-1-methylpyrrolidin-3-yl)-2-(3-fluorocyclopentyl)-1H-imidazo[4,5-c]quinoline-8-carbonitrile] | 2300 |  |
| CO[C@H]1C[C@H](c2nc3cnc4ccc(C#N)cc4c3n2C2CCOCC2(F)F)C1 (stereo partly drawn) [Example 51, 1-(3,3-difluorotetrahydro-2H-pyran-4-yl)-2-(trans-3-methoxycyclobutyl)-1H-imidazo[4,5-c]quinoline-8-carbonitrile] | 272 |  |
| CC1(C)C[C@H](n2c([C@@H]3CC[C@H](F)C3)nc3cnc4ccc(C#N)cc4c32)CCO1 [Example 54, 1-[(4R)-2,2-dimethyltetrahydro-2H-pyran-4-yl]-2-[(1R,3S)-3-fluorocyclopentyl]-1H-imidazo[4,5-c]quinoline-8-carbonitrile] | > 3000 |  |
